Ki data for two molecules are collected here from paper PMC7539200, “Glufosinate constrains synchronous and metachronous metastasis by promoting anti‐tumor macrophages” (EMBO Molecular Medicine, 2020).

Like-named read-outs stand apart in the source and are kept apart here.

Assay [1] concerns the target T1, human glutamine synthetase (hGS) (Homo sapiens, UniProt P15104).
T1 construct: gene GLUL
The assay can be described thus: microtiter phosphate-release GS activity assay, Lineweaver-Burk and secondary plot; IC50 […]. The assay is classed as biochemical.

Assay [2] has as its target T1, human glutamine synthetase (hGS). The assay is described as above. Format: biochemical. The source holds these as a separate data set.

T1 sequence (P15104 2-373): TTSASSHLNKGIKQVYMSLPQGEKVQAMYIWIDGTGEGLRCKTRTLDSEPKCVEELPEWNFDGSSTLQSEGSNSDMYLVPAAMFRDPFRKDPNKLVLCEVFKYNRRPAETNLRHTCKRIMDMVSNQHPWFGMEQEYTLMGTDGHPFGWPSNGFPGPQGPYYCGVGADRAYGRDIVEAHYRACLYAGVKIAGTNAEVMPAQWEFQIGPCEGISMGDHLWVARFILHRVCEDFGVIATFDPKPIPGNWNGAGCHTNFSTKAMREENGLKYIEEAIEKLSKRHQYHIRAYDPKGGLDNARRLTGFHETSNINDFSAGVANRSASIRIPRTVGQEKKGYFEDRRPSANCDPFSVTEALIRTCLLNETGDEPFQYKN

In general, Ki refers to the equilibrium dissociation constant of an inhibitor or competing ligand from its target. Higher therefore signals lower affinity. Molecule `CP(=O)(O)CCC(N)C(=O)O` (centres unmarked) [Glufosinate] showed a Ki in assay [1] of about 19.5 µM.
For the molecule `CS(=N)(=O)CCC(N)C(=O)O` (centres unmarked) [Methionine sulfoximine], the affinity in assay [2] corresponds to a Ki of 880 µM.
